Experimental data published in patent publication US11390609B2, “Rho-associated protein kinase inhibitor, pharmaceutical composition comprising same, and preparation method and use thereof” (BEIJING TIDE PHARMACEUTICAL CO., LTD., priority 2017, dated 2022).

Columns and labels:
ROCK2 = ROCK2 (Homo sapiens, UniProt O75116); assay: ROCK2 kinase IC50 assay (CISBIO HTRF KinEASE-STK S2 kit); assay type: biochemical; conditions: incubated at room temperature for 2 hours
In short: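 HTRF KinEASE-STK S2 format with recombinant ROCK2 (1.4 ng per well), STK-S2 substrate and ATP from 5× working solutions of 1.5 μM each, run 2 h at room temperature. Nine-point dilutions from 10000 nM top concentration; 665/615 nm emission ratio normalised to no-compound and no-kinase controls, curve-fitted for IC50.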

ROCK1 = ROCK1 (Homo sapiens (Human), UniProt Q13464); assay: ROCK1 kinase IC50 assay (biological test method similar to the ROCK2 assay); assay type: biochemical
In short: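 HTRF KinEASE-STK S2 assay with the STK-S2 biotinylated substrate and ATP, at 5× working solutions of 1.5 µM each. Kinase reaction with 9-point compound dilutions ran 2 h at room temperature, followed by 1 h streptavidin-XL665/Cryptate detection. The 665/615 nm ratio was normalised to no-compound and no-kinase wells, and IC50 was obtained by curve fitting.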

Chain of ROCK1 (Q13464 whole entry, species assumed): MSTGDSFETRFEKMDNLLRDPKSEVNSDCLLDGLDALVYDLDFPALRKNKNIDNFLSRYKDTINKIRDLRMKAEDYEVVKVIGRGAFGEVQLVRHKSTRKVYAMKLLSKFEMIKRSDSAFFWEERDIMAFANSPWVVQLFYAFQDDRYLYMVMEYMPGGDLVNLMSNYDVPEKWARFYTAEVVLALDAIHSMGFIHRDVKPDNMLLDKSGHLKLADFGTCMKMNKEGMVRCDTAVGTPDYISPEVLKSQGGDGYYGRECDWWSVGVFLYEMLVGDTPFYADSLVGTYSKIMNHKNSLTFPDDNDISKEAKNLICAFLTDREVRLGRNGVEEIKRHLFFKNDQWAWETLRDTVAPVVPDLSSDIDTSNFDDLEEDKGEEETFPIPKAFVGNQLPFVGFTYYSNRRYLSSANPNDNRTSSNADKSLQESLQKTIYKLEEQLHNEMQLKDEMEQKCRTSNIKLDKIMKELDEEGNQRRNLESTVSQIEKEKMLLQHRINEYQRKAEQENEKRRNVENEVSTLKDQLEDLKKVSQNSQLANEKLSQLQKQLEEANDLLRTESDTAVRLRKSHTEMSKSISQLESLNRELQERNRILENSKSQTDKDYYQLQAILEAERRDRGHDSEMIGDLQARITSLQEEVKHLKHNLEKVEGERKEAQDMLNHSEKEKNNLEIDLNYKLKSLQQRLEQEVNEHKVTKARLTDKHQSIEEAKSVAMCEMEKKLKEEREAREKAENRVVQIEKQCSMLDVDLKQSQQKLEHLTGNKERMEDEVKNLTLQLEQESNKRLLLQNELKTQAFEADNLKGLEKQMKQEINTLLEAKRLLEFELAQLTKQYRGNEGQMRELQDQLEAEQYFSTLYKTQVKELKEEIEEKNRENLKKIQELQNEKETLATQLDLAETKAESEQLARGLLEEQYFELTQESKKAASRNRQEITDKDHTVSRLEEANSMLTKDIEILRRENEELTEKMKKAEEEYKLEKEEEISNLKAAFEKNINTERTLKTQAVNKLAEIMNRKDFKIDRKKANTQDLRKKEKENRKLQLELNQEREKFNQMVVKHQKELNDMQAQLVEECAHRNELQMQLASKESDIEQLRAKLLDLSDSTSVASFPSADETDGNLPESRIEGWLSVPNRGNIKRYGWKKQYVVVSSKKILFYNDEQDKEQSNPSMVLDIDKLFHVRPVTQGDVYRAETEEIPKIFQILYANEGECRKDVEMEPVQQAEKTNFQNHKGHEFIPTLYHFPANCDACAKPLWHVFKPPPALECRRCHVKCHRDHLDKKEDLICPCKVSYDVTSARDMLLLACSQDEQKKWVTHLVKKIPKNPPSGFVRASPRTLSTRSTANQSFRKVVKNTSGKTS

Compound | IC50 (ROCK2) [nM] | IC50 (ROCK1) [nM]
O=C(NC1CCCN(c2ccncc2)C1)c1cc2ccc(-c3nccc(Nc4ccc(-c5cn[nH]c5)cc4)n3)cc2[nH]1 (stereo not drawn) [TDI01882, 6-(4-((4-(1H-pyrazol-4-yl)phenyl)-amino)-pyrimidin-2-yl)-N-(1-(pyridin-4-yl)piperidin-3-yl)-1H-indole-2-carboxamide] | 8 | 139
O=C(NC1CCN(c2ccncc2Cl)CC1)c1cc2ccc(-c3nccc(Nc4ccc(-c5cn[nH]c5)cc4)n3)cc2s1 [TDI01884, 6-(4-((4-(1H-pyrazol-4-yl)phenyl)-amino)-pyrimidin-2-yl)-N-(1-(3-chloropyridin-4-yl)piperidin-4-yl)benzo[b]-thiophene-2-carboxamide] | 26 | > 10000
Cn1c(C(=O)N2CC(F)(F)C2)cc2ccc(-c3nccc(Nc4ccc5[nH]ncc5c4)n3)cc21 [TDI01906, (6-(4-((1H-indazol-5-yl)amino)pyrimidin-2-yl)-1-methyl-1H-indol-2-yl)(3,3-difluoroazetidin-1-yl)methanone] | 49 | > 10000
COc1cc(Nc2ccnc(-c3ccc4cc(C(=O)N5CC(F)(F)C5)n(C)c4c3)n2)ccc1-c1cn[nH]c1 [TDI01910, (3,3-difluoroazetidin-1-yl)(6-(4-((3-methoxy-4-(1H-pyrazol-4-yl)phenyl)amino)pyrimidin-2-yl)-1-methyl-1H-indol-2-yl)methanone] | 6 | > 10000
COc1cc(Nc2ccnc(-c3ccc4cc(-c5nccs5)[nH]c4c3)n2)ccc1-c1cn[nH]c1 [TDI01912, N-(3-methoxy-4-(1H-pyrazol-4-yl)phenyl)-2-(2-(thiazol-2-yl)-1H-indol-6-yl)pyrimidin-4-amine] | 44 | > 10000
COc1cnc(-c2ccc3cc(C(=O)N4CC(F)(F)C4)n(C)c3c2)nc1Nc1ccc(-c2cn[nH]c2)cc1 [TDI01915, (6-(4-((4-(1H-pyrazol-4-yl)phenyl)amino)-5-methoxypyrimidin-2-yl)-1-methyl-1H-indol-2-yl)(3,3-difluoroazetidin-1-yl)methanone] | 18 | > 10000
Cn1c(C(=O)N2CC(F)(F)C2)cc2ccc(-c3nc(Nc4ccc(-c5cn[nH]c5)cc4)c4ccccc4n3)cc21 [TDI01918, (6-(4-((4-(1H-pyrazol-4-yl)phenyl)amino)quinazolin-2-yl)-1-methyl-1H-indol-2-yl)(3,3-difluoroazetidin-1-yl)methanone] | 165 | > 10000
Cn1c(-c2nccs2)cc2ccc(-c3nccc(Nc4ccc(-c5cn[nH]c5)cc4)n3)cc21 [TDI01919] | 62 | 4060
COCn1c(C(=O)N2CC(F)(F)C2)cc2ccc(-c3nccc(Nc4ccc(-c5cn[nH]c5)cc4)n3)cc21 [TDI01920, (6-(4-((4-(1H-pyrazol-4-yl)phenyl)amino)pyrimidin-2-yl)-1-(methoxymethyl)-1H-indol-2-yl)(3,3-difluoroazetidin-1-yl)methanone] | 200 | > 10000
C=Cn1c(C(=O)N2CC(F)(F)C2)cc2ccc(-c3nccc(Nc4ccc(-c5cn[nH]c5)cc4)n3)cc21 [TDI01923, (6-(4-((4-(1H-pyrazol-4-yl)phenyl)amino)pyrimidin-2-yl)-1-vinyl-1H-indol-2-yl)(3,3-difluoroazetidin-1-yl)methanone] | 50 | > 10000
c1cc(Nc2ccc(-c3cn[nH]c3)nc2)nc(-c2ccc3cc(-c4nccs4)[nH]c3c2)n1 [TDI01940, N-(6-(1H-pyrazol-4-yl)pyridin-3-yl)-2-(2-(thiazol-2-yl)-1H-indol-6-yl)pyrimidin-4-amine] | 147 | > 10000
Cn1c(C(=O)N2CC(F)(F)C2)cc2ccc(-c3nc(Nc4ccc(-c5cn[nH]c5)cc4)c4ccsc4n3)cc21 [TDI01947, (6-(4-((4-(1H-pyrazol-4-yl)phenyl)amino)thieno[2,3-d]pyrimidin-2-yl)-1-methyl-1H-indol-2-yl)(3,3-difluoroazetidin-1-yl)methanone] | 88 | > 10000
Cn1c(C(=O)N2CC(F)(F)C2)cc2ccc(-c3nc(Nc4ccc(-c5cn[nH]c5)cc4)c4cccn4n3)cc21 [TDI01948, (6-(4-((4-(1H-pyrazol-4-yl)phenyl)amino)pyrrolo[2,1-f][1,2,4]triazin-2-yl)-1-methyl-1H-indol-2-yl)(3,3-difluoroazetidin-1-yl)methanone] | 103 | > 10000
Cn1c(C(=O)N2CC(F)(F)C2)cc2ccc(-c3ncc(Cl)c(Nc4ccc(-c5cn[nH]c5)cc4)n3)cc21 [TDI01949, (6-(4-((4-(1H-pyrazol-4-yl)phenyl)amino)-5-chloropyrimidin-2-yl)-1-methyl-1H-indol-2-yl)(3,3-difluoroazetidin-1-yl)methanone] | 59 | > 10000
O=C(NC1CC(F)(F)C1)N1Cc2ccc(-c3nccc(Nc4ccc(-c5cn[nH]c5)cc4)n3)cc2C1 [TDI01951, 5-(4-((4-(1H-pyrazol-4-yl)phenyl)amino)pyrimidin-2-yl)-N-(3,3-difluorocyclobutyl) isoindoline-2-carboxamide] | 27 | > 10000
Cc1[nH]ncc1-c1ccc(Nc2ccnc(-c3ccc4cc(C(=O)N5CC(F)(F)C5)n(C)c4c3)n2)cc1 [TDI01955, (3,3-difluoroazetidin-1-yl)(1-methyl-6-(4-((4-(5-methyl-1H-pyrazol-4-yl)phenyl)amino)pyrimidin-2-yl)-1H-indol-2-yl)methanone] | 33 | > 10000
O=C(N1CCc2cc(-c3nccc(Nc4ccc(-c5cn[nH]c5)cc4)n3)ccc2C1)N1CC(F)(F)C1 [TDI01959, (6-(4-((4-(1H-pyrazol-4-yl)phenyl)amino)pyrimidin-2-yl)-3,4-dihydroisoquinolin-2(1H)-yl)(3,3-difluoroazetidin-1-yl)methanone] | 131 | > 10000
Cn1c(C(=O)N2CC(F)(F)C2)cc2ccc(-c3nc4c(c(Nc5ccc(-c6cn[nH]c6)cc5)n3)CCC4)cc21 [TDI01960, (6-(4-((4-(1H-pyrazol-4-yl)phenyl)amino)-6,7-dihydro-5H-cyclopenta[d]pyrimidin-2-yl)-1-methyl-1H-indol-2-yl)(3,3-difluoroazetidin-1-yl)methanone] | 50 | > 10000
O=C(C1CC(F)(F)C1)N1Cc2ccc(-c3nccc(Nc4ccc5[nH]ncc5c4)n3)cc2C1 [TDI01967, (5-(4-((1H-indazol-5-yl)amino)pyrimidin-2-yl)isoindolin-2-yl)(3,3-difluorocyclobutyl) methanone] | 45 | > 10000
CN1CCC[C@H]1C(=O)N1Cc2ccc(-c3nccc(Nc4ccc(-c5cn[nH]c5)cc4)n3)cc2C1 [TDI01968A, 5-(4-((4-(1H-pyrazol-4-yl)phenyl)amino)pyrimidin-2-yl)-2-(methyl-L-prolyl)isoindoline] | 296 | > 10000
CN1CCc2nc(C(=O)N3Cc4ccc(-c5nccc(Nc6ccc(-c7cn[nH]c7)cc6)n5)cc4C3)sc2C1 [TDI01973, (5-(4-((4-(1H-pyrazol-4-yl)phenyl)amino)pyrimidin-2-yl)isoindolin-2-yl)(5-methyl-4,5,6,7-tetrahydrothiazolo[5,4-c]pyridin-2-yl)methanone] | 52 | > 10000
CN(C)C(=O)N1Cc2ccc(-c3nc(Nc4ccc(-c5cn[nH]c5)cc4)c4occc4n3)cc2C1 [TDI01974, 5-(4-((4-(1H-pyrazol-4-yl)phenyl)amino)furo[3,2-d]pyrimidin-2-yl)-N,N-dimethylisoindoline-2-carboxamide] | 186 | > 10000
O=C(C1CC(F)(F)C1)N1Cc2ccc(-c3nccc(Nc4ccc(-c5cn[nH]c5)cn4)n3)cc2C1 [TDI01979, (5-(4-((5-(1H-pyrazol-4-yl)pyridin-2-yl)amino)pyrimidin-2-yl)isoindolin-2-yl)(3,3-difluorocyclobutyl)methanone] | 137 | > 10000
CC(O)C(=O)N1Cc2ccc(-c3nccc(Nc4ccc(-c5cn[nH]c5)cc4)n3)cc2C1 (stereo not drawn) [TDI01989, 1-(5-(4-((4-(1H-pyrazol-4-yl)phenyl)amino)pyrimidin-2-yl)isoindolin-2-yl)-2-hydroxypropan-1-one] | 385 | > 10000
